Measured values reported in US4259235A, “Tricyclic nitrogenous compounds having string plant growth regulating properties” (BASF Aktiengesellschaft, priority 1977, dated 1981).
Read-outs that look alike come from different tables or passages of the source.

Tests used:
Lolium mult. = assay: Herbicidal action, pre- and postemergence application in the greenhouse; assay type: in vivo; conditions: Lolium, post-emergence, read-out: % damage
Protocol: (§1) Plastic flowerpots having a volume of 300 cm^3 were filled with a sandy loam and the test plants placed therein (either as seed, as vegetatively reproduced species, or as potted plants, e.g., vines). For preemergence treatment, the active ingredients were suspended or emulsified in water as vehicle and sprayed onto the surface of the soil immediately after sowing by means of finely distributing nozzles. The potted vines were treated by spraying them with the correspondingly diluted liquor. For postemergence treatment, the agents were, as stated above, sprayed in water onto the leaves of the test plants, some liquor also falling onto the soil. In some special cases, solid active ingredients were first dissolved in dimethylformamide and then applied in a total liquor amount of 400 liters of water per hectare. For the postemergence treatment, the plants were first grown to a height of from 3 to 10 cm before being treated. With grasses, the first growth was cut, and the new growth treated 2 to 3 days after cutting. The temperature requirements of the plants were taken into account by placing them in cooler or warmer sections of the greenhouse. The experiments were run for from 4 to 6 weeks, during which time the plants were tended and their reaction to the various treatments was assessed.
(§2) The application rates are given in kg/ha of active ingredient, regardless of the method of application and the amount of water used.
(§3) A 0 to 100 scale was used for the evaluation, 0 denoting normal emergence or no damage (or no inhibition), and 100 denoting non-emergence or complete destruction of the plants. A distinction should be made in the influence on growth between desired changes without any appreciable disadvantageous phytotoxic effects (e.g., purely growth-regulating effects) and those of a phytotoxic herbicical character.

Mentha piper. = assay: as above; assay type: in vivo; conditions: post-emergence; 3.0 kg/ha POST; read-out: % damage
Protocol: as §1, §2, §3

Sinapis alba = assay: as above; assay type: in vivo; conditions: post-emergence, 3.0 kg/ha PRE, read-out: % damage
Protocol: as §1, §2, §3

Ipom. spp. = assay: as above; assay type: in vivo, Ipomoea spp.; conditions: Ipomoea, post-emergence; 3.0 kg/ha POST; read-out: % damage
Protocol: as §1, §2, §3

Galium apar. = assay: as above; assay type: in vivo, Galium aparine; conditions: post-emergence, 3.0 kg/ha POST, read-out: % damage
Protocol: as §1, §2, §3

spring barley [1] = assay: Growth height of spring barley, soil (preemergence) treatment, Example 9; assay type: in vivo, spring barley ("Union" variety); conditions: 30 days
Protocol: (§4) Spring wheat of the "Opal" variety and spring barley of the "Union" variety were grown in the winter half of the year under greenhouse conditions in plastic dishes 11.5 cm in diameter, in a peat substrate provided with sufficient nutrients.
(§5) The reductions in growth height caused by the treatment were determined by measuring the height of the plants at the end of the experiment after 30 days' growth, and comparing it with that of untreated plants.

spring barley [2] = assay: Growth height of spring barley, leaf treatment, Example 11; assay type: in vivo, spring barley ("Union" variety)
Protocol: (§6) The test plants--spring wheat ("Opal" variety), spring barley ("Union" variety) and spring rye ("Petkuser" variety)--were grown under greenhouse conditions in plastic dishes 11.5 cm in diameter, in a peat substrate provided with sufficient nutrients.
(§7) Leaf treatment was effected by spraying the plants at a growth height of 11 cm with aqueous formulations of the active ingredients, at three application rates.
(§8) The shortening effect caused by the compounds was shown by measurements of the height of the plants at the end of the experiment.
(§9) The prior art compound N,N,N-trimethyl-N-β-chloroethylammonium chloride (CCC, German Printed Application DAS No. 1,294,734) was used for comparison purposes.

spring barley [3] = assay: Growth height of spring barley, soil treatment, Example 11; assay type: in vivo, spring barley ("Union" variety)
Protocol: as §6
(§10) The soil (preemergence) treatment was effected after sowing by pouring aqueous formulations of the active ingredients, at four application rates, onto the surface of the substrate.
as §8, §9

spring wheat [4] = assay: Growth height of spring wheat, soil (preemergence) treatment, Example 9; assay type: in vivo, spring wheat ("Opal" variety); conditions: 30 days
Protocol: as §4, §5

spring rye [5] = assay: Growth height of spring rye, soil treatment, Example 11; assay type: in vivo, spring rye ("Petkuser" variety)
Protocol: as §6, §10, §8, §9

spring wheat [6] = assay: Growth height of spring wheat, leaf treatment, Example 11; assay type: in vivo, spring wheat ("Opal" variety)
Protocol: as §6, §7, §8, §9

spring rye [7] = assay: Growth height of spring rye, leaf treatment, Example 11; assay type: in vivo, spring rye ("Petkuser" variety)
Protocol: as §6, §7, §8, §9

Oryza sativa = assay: Shoot growth, postemergence treatment in the greenhouse (table 25); assay type: in vivo
Protocol: as §1, §2, §3

Arachys hypogaea = assay: as above; assay type: in vivo
Protocol: as §1, §2, §3

Poa pratensis = assay: as above; assay type: in vivo
Protocol: as §1, §2, §3

potted vines = assay: Tolerance by potted vines in greenhouse; spray application; assay type: in vivo
Protocol: as §1, §2, §3

Hordeum vulgare = assay: Shoot growth, postemergence treatment in the greenhouse (table 26); assay type: in vivo
Protocol: as §1, §2, §3

Cynodon dactylon = assay: as above; assay type: in vivo; conditions: from seed
Protocol: as §1, §2, §3

Euphorbia geniculata [8] = assay: as above; assay type: in vivo
Protocol: as §1, §2, §3

Medicago sativa = assay: Inhibition of shoot growth by growth regulators, pre- and postemergence (table 27); assay type: in vivo; conditions: post-emergence, read-out: shoot growth inhibition (%)
Protocol: as §1, §2, §3

Euphorbia geniculata [9] = assay: as above; assay type: in vivo; conditions: Euphorbia heterophylla, post-emergence, read-out: shoot growth inhibition (%)
Protocol: as §1, §2, §3

FC(F)(F)c1cccc(NC2C(Br)C3CC2C2N=NC32)c1 (stereo not drawn)
pest or weed control at 3000 g/ha (Lolium mult.; 3.0 kg/ha POST): 100% | pest or weed control at 3000 g/ha (Lolium mult.; 3.0 kg/ha PRE): 100% | pest or weed control at 3000 g/ha (Mentha piper.): 95% | pest or weed control at 3000 g/ha (Sinapis alba): 95% | pest or weed control at 3000 g/ha (Ipom. spp.): 100% | pest or weed control at 3000 g/ha (Galium apar.): 90%

C[N+](C)(C)CCCl.[Cl-] [CCC, N,N,N-trimethyl-N-β-chloroethylammonium chloride, reference compound]
Plant height (spring barley [1]; 3 kg/ha): 27.5 cm | Plant height, % of untreated control (spring barley [1]; 3 kg/ha): 85.1% | Plant height (spring barley [1]; 12 kg/ha): 24.5 cm | Plant height, % of untreated control (spring barley [1]; 12 kg/ha): 75.9% | Plant height (spring barley [2]; 0.75 kg/ha): 27.5 cm | Plant height, % of untreated control (spring barley [2]; 0.75 kg/ha): 98.4% | Plant height (spring barley [2]; 1.50 kg/ha): 27.0 cm | Plant height, % of untreated control (spring barley [2]; 1.50 kg/ha): 97.1% | Plant height (spring barley [2]; 3.00 kg/ha): 27.0 cm | Plant height, % of untreated control (spring barley [2]; 3.00 kg/ha): 97.1% | Plant height (spring barley [3]; 0.75 kg/ha): 29.5 cm | Plant height, % of untreated control (spring barley [3]; 0.75 kg/ha): 89.9% | Plant height (spring barley [3]; 1.50 kg/ha): 29.5 cm | Plant height, % of untreated control (spring barley [3]; 1.50 kg/ha): 89.9% | Plant height (spring barley [3]; 3.00 kg/ha): 27.5 cm | Plant height, % of untreated control (spring barley [3]; 3.00 kg/ha): 83.8% | Plant height (spring barley [3]; 6.00 kg/ha): 26.0 cm | Plant height, % of untreated control (spring barley [3]; 6.00 kg/ha): 79.3% | Plant height (spring wheat [4]; 3 kg/ha): 21.5 cm | Plant height, % of untreated control (spring wheat [4]; 3 kg/ha): 71.7% | Plant height (spring wheat [4]; 12 kg/ha): 19.5 cm | Plant height, % of untreated control (spring wheat [4]; 12 kg/ha): 65.0% | Plant height (spring rye [5]; 0.75 kg/ha): 31.5 cm | Plant height, % of untreated control (spring rye [5]; 0.75 kg/ha): 97.5% | Plant height (spring rye [5]; 1.50 kg/ha): 30.5 cm | Plant height, % of untreated control (spring rye [5]; 1.50 kg/ha): 94.4% | Plant height (spring rye [5]; 3.00 kg/ha): 30.0 cm | Plant height, % of untreated control (spring rye [5]; 3.00 kg/ha): 92.9% | Plant height (spring rye [5]; 6.00 kg/ha): 28.5 cm | Plant height, % of untreated control (spring rye [5]; 6.00 kg/ha): 88.2% | Plant height (spring wheat [6]; 0.75 kg/ha): 27.5 cm | Plant height, % of untreated control (spring wheat [6]; 0.75 kg/ha): 89.3% | Plant height (spring wheat [6]; 1.50 kg/ha): 26.0 cm | Plant height, % of untreated control (spring wheat [6]; 1.50 kg/ha): 84.4% | Plant height (spring wheat [6]; 3.00 kg/ha): 25.0 cm | Plant height, % of untreated control (spring wheat [6]; 3.00 kg/ha): 81.2% | Plant height (spring rye [7]; 0.75 kg/ha): 27.0 cm | Plant height, % of untreated control (spring rye [7]; 0.75 kg/ha): 94.7% | Plant height (spring rye [7]; 1.50 kg/ha): 25.5 cm | Plant height, % of untreated control (spring rye [7]; 1.50 kg/ha): 89.5% | Plant height (spring rye [7]; 3.00 kg/ha): 25.5 cm | Plant height, % of untreated control (spring rye [7]; 3.00 kg/ha): 89.5%

C[N+](C)(C)CCCl [[ClCH2CH2N⊕(CH3)3]⊖, reference compound]
Shoot length (Oryza sativa; 1.0 kg/ha): 20 cm | Shoot length (Oryza sativa; 2.0 kg/ha): 20 cm | Shoot length (Oryza sativa; 4.0 kg/ha): 20 cm | Shoot length (Arachys hypogaea; 1.0 kg/ha): 16 cm | Shoot length (Arachys hypogaea; 2.0 kg/ha): 16 cm | Shoot length (Arachys hypogaea; 4.0 kg/ha): 16 cm | Shoot length (Poa pratensis; 1.0 kg/ha): 4 cm | Shoot length (Poa pratensis; 2.0 kg/ha): 4 cm | Shoot length (Poa pratensis; 4.0 kg/ha): 3 cm

BrC1C(Br)C2CC1C1N=NC21 (stereo not drawn) [drawing 427]
Potted vines - leaf damage (potted vines; 4.0 and 8.0 kg/ha): none | Change in shoot growth (potted vines; 4.0 kg/ha): 14.7 cm | Change in shoot growth (potted vines; 8.0 kg/ha): 13.3 cm

C1C2C3N=NC3C1C1OC21 (stereo not drawn) [drawing 433]
Shoot length (Oryza sativa; 1.0 kg/ha): 16 cm | Shoot length (Oryza sativa; 2.0 kg/ha): 16 cm | Shoot length (Oryza sativa; 4.0 kg/ha): 16 cm | Shoot length (Arachys hypogaea; 1.0 kg/ha): 10 cm | Shoot length (Arachys hypogaea; 2.0 kg/ha): 10 cm | Shoot length (Arachys hypogaea; 4.0 kg/ha): 10 cm | Leaf scorch (footnote x) (Poa pratensis; 1.0, 2.0 and 4.0 kg/ha): limited leaf scorch | Shoot length (Poa pratensis; 1.0 kg/ha): 2 cm | Shoot length (Poa pratensis; 2.0 kg/ha): 2 cm | Shoot length (Poa pratensis; 4.0 kg/ha): 2 cm

CN(C)NC(=O)CCC(=O)O [drawing 434]
Shoot length (Arachys hypogaea; 1.0 kg/ha): 12 cm | Shoot length (Arachys hypogaea; 2.0 kg/ha): 5 cm | Shoot length (Arachys hypogaea; 4.0 kg/ha): 5 cm | Shoot length (Poa pratensis; 1.0 kg/ha): 4 cm | Shoot length (Poa pratensis; 2.0 kg/ha): 4 cm | Shoot length (Poa pratensis; 4.0 kg/ha): 4 cm

Clc1ccc(NC2C(Cl)C3CC2C2N=NC32)cc1 (stereo not drawn) [drawing 435]
Shoot length (Hordeum vulgare; 0.5 kg/ha): 12.5 cm | Shoot length (Hordeum vulgare; 1.0 kg/ha): 12 cm | Shoot length (Hordeum vulgare; 2.0 kg/ha): 12 cm | Shoot length (Cynodon dactylon; 1.0 kg/ha): 5 cm | Shoot length (Cynodon dactylon; 2.0 kg/ha): 5 cm | Shoot length (Euphorbia geniculata [8]; 0.5 kg/ha): 9 cm | Shoot length (Euphorbia geniculata [8]; 1.0 kg/ha): 9 cm | Shoot length (Euphorbia geniculata [8]; 2.0 kg/ha): 9 cm

c1ccc(C2=NOC3C4CC(C5N=NC45)C23)cc1 (stereo not drawn) [drawing 437]
inhibition at 2000 g/ha (Medicago sativa; 2.0 kg/ha POST): 20% | inhibition at 4000 g/ha (Medicago sativa; 4.0 kg/ha POST): 20% | inhibition at 500 g/ha (Euphorbia geniculata [9]; 0.5 kg/ha PRE): 33% | inhibition at 1000 g/ha (Euphorbia geniculata [9]; 1.0 kg/ha PRE): 40% | inhibition at 2000 g/ha (Euphorbia geniculata [9]; 2.0 kg/ha POST): 30% | inhibition at 4000 g/ha (Euphorbia geniculata [9]; 4.0 kg/ha POST): 30%

C1C2C3N=NC3C1C1OC21 (stereo not drawn) [drawing 445]
pest or weed control at 3000 g/ha (Lolium mult.; 3.0 kg/ha POST): 100% | pest or weed control at 3000 g/ha (Lolium mult.; 3.0 kg/ha PRE): 95% | pest or weed control at 3000 g/ha (Mentha piper.): 100% | pest or weed control at 3000 g/ha (Sinapis alba): 90% | pest or weed control at 3000 g/ha (Ipom. spp.): 100% | pest or weed control at 3000 g/ha (Galium apar.): 60%
